Results taken from ChEMBL document CHEMBL1201862, “PubChem BioAssay data set” (2004).
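1) Cells in 96-well plates. 2) Compound, 48 h, 5 concentrations. 3) Linear interpolation between surrounding doses. 4) Unreached endpoint = highest concentration. Abbreviation: GI50, concentration required for 50% inhibition of growth.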 Activity calls are given as the source filed them. Rule as the data show it: active = GI50 up to about 1.1 µM and inactive = higher.

Key:
Assay in all cases: DTP human tumour cell line panel, 48 h
[1] = tested on: CCRF-CEM
[2] = tested on: COLO 205
[3] = tested on: DU-145
[4] = tested on: HCC 2998
[5] = tested on: HT-29
[6] = tested on: Hs-578T
[7] = tested on: LOX IMVI
[8] = tested on: MCF7
[9] = tested on: MDA-N
[10] = tested on: Malme-3M
[11] = tested on: NCI-H23
[12] = tested on: OVCAR-4
[13] = tested on: SF-268
[14] = tested on: SF-295
[15] = tested on: SK-MEL-28
[16] = tested on: SNB-19
[17] = tested on: SNB-75
[18] = tested on: T47D
[19] = tested on: UACC-257
[20] = tested on: HOP-92

Row | Compound | GI50 [1] | GI50 [2] | GI50 [3] | GI50 [4] | GI50 [5] | GI50 [6] | GI50 [7] | GI50 [8] | GI50 [9] | GI50 [10] | GI50 [11] | GI50 [12] | GI50 [13] | GI50 [14] | GI50 [15] | GI50 [16] | GI50 [17] | GI50 [18] | GI50 [19] | GI50 [20]
1 | CC(C)(C)OC(=O)N/C(C=O)=C\C1CCCCC1 | 29.6 µM (inactive) | 19.2 µM (inactive) | 29 µM (inactive) | 19.8 µM (inactive) | 27.2 µM (inactive) | 27.3 µM (inactive) | 14.3 µM (inactive) | 25.6 µM (inactive) | 18.5 µM (inactive) | 25.8 µM (inactive) | 23.7 µM (inactive) | 23.1 µM (inactive) | 17.4 µM (inactive) | 29.8 µM (inactive) | 46.6 µM (inactive) | 25.1 µM (inactive) | 29.7 µM (inactive) | 24.6 µM (inactive) | 20.4 µM (inactive) | –
2 | O/N=C1/Nc2cc(Cl)ccc2C(=S)N2CSCC12 (stereo unspecified) | > 100 µM (inactive) | > 100 µM (inactive) | > 100 µM (inactive) | > 100 µM (inactive) | > 100 µM (inactive) | > 100 µM (inactive) | > 100 µM (inactive) | > 100 µM (inactive) | > 100 µM (inactive) | > 100 µM (inactive) | – | > 100 µM (inactive) | > 100 µM (inactive) | > 100 µM (inactive) | > 100 µM (inactive) | > 100 µM (inactive) | > 100 µM (inactive) | > 100 µM (inactive) | > 100 µM (inactive) | –
3 | O=C(CCCn1ccnc1[N+](=O)[O-])NCCn1cnc([N+](=O)[O-])n1 | > 100 µM (inactive) | > 100 µM (inactive) | > 100 µM (inactive) | – | > 100 µM (inactive) | > 100 µM (inactive) | > 100 µM (inactive) | > 100 µM (inactive) | > 100 µM (inactive) | > 100 µM (inactive) | > 100 µM (inactive) | > 100 µM (inactive) | > 100 µM (inactive) | > 100 µM (inactive) | > 100 µM (inactive) | – | > 100 µM (inactive) | > 100 µM (inactive) | > 100 µM (inactive) | > 100 µM (inactive)
4 | C=C[C@]1(C)CC[C@]2(C)C(CC[C@@]3(C)C2C[C@H](O)[C@H](O)[C@@]3(C)O)C1 (stereo partly specified) | > 100 µM (inactive) | > 100 µM (inactive) | > 100 µM (inactive) | > 100 µM (inactive) | > 100 µM (inactive) | > 100 µM (inactive) | > 100 µM (inactive) | > 100 µM (inactive) | > 100 µM (inactive) | > 100 µM (inactive) | > 100 µM (inactive) | – | > 100 µM (inactive) | > 100 µM (inactive) | > 100 µM (inactive) | > 100 µM (inactive) | > 100 µM (inactive) | > 100 µM (inactive) | > 100 µM (inactive) | –
5 | C=C1C(O)C[C@H](OC(C)=O)[C@]2(C)C1C(OC(C)=O)[C@]1(C(C)(C)O)CC(O)C(C)=C1[C@@H](OC(=O)c1ccccc1)C2OC(C)=O (stereo partly specified) | > 10 µM (inactive) | > 10 µM (inactive) | > 10 µM (inactive) | – | > 10 µM (inactive) | > 10 µM (inactive) | > 10 µM (inactive) | > 10 µM (inactive) | > 10 µM (inactive) | – | > 10 µM (inactive) | > 10 µM (inactive) | > 10 µM (inactive) | > 10 µM (inactive) | > 10 µM (inactive) | > 10 µM (inactive) | > 10 µM (inactive) | > 10 µM (inactive) | > 10 µM (inactive) | > 10 µM (inactive)
6 | CN1C(=O)C2CCCC(=O)N2c2cccnc21 (stereo unspecified) | > 100 µM (inactive) | > 100 µM (inactive) | > 100 µM (inactive) | > 100 µM (inactive) | > 100 µM (inactive) | > 100 µM (inactive) | > 100 µM (inactive) | > 100 µM (inactive) | > 100 µM (inactive) | > 100 µM (inactive) | > 100 µM (inactive) | > 100 µM (inactive) | > 100 µM (inactive) | > 100 µM (inactive) | > 100 µM (inactive) | > 100 µM (inactive) | – | > 100 µM (inactive) | > 100 µM (inactive) | –
7 | O=C1OCC2=Nc3cccc4cccc(c34)N12 | 49.8 µM (inactive) | > 100 µM (inactive) | > 100 µM (inactive) | > 100 µM (inactive) | > 100 µM (inactive) | > 100 µM (inactive) | > 100 µM (inactive) | > 100 µM (inactive) | – | – | > 100 µM (inactive) | > 100 µM (inactive) | > 100 µM (inactive) | > 100 µM (inactive) | > 100 µM (inactive) | > 100 µM (inactive) | > 100 µM (inactive) | > 100 µM (inactive) | > 100 µM (inactive) | < 0.01 µM (active)
8 | COc1cc2c(cc1OC)-c1[nH]c3ccc(C#N)cc3c1CC(=O)N2 | 1.56 µM (inactive) | 0.463 µM (active) | 3.33 µM (inactive) | – | 3.88 µM (inactive) | 0.861 µM (active) | 2.09 µM (inactive) | 4.71 µM (inactive) | 2.48 µM (inactive) | > 28.5 µM (inactive) | 12.2 µM (inactive) | > 30.1 µM (inactive) | 1.72 µM (inactive) | 6.14 µM (inactive) | > 26.3 µM (inactive) | > 100 µM (inactive) | 0.44 µM (active) | > 100 µM (inactive) | > 52 µM (inactive) | > 100 µM (inactive)
9 | Cc1cc(C)nc(NS(=O)(=O)c2ccc(NC(=O)NC(F)(F)F)cc2)n1 | > 100 µM (inactive) | > 100 µM (inactive) | – | > 100 µM (inactive) | > 100 µM (inactive) | > 100 µM (inactive) | > 100 µM (inactive) | – | > 100 µM (inactive) | – | > 100 µM (inactive) | – | > 100 µM (inactive) | – | > 100 µM (inactive) | > 100 µM (inactive) | > 100 µM (inactive) | > 100 µM (inactive) | > 100 µM (inactive) | –
10 | COC(=O)NNC(=O)OC.COC(=O)Nc1ccccc1NC(=O)OC.COC(=O)Oc1nn(C(=O)OC)c(=O)c2ccccc12 | > 100 µM (inactive) | > 100 µM (inactive) | > 100 µM (inactive) | > 100 µM (inactive) | > 100 µM (inactive) | > 100 µM (inactive) | > 100 µM (inactive) | > 100 µM (inactive) | > 100 µM (inactive) | > 100 µM (inactive) | > 100 µM (inactive) | > 100 µM (inactive) | > 100 µM (inactive) | > 100 µM (inactive) | > 100 µM (inactive) | > 100 µM (inactive) | > 100 µM (inactive) | > 100 µM (inactive) | > 100 µM (inactive) | –
11 | O=C1NCC2(CCN(CCCC3(c4ccc(F)cc4)OCCO3)CC2)N1c1ccccc1 | > 100 µM (inactive) | > 100 µM (inactive) | > 100 µM (inactive) | > 100 µM (inactive) | 84.5 µM (inactive) | > 100 µM (inactive) | > 100 µM (inactive) | – | > 100 µM (inactive) | > 100 µM (inactive) | > 100 µM (inactive) | > 100 µM (inactive) | > 100 µM (inactive) | > 100 µM (inactive) | > 100 µM (inactive) | > 100 µM (inactive) | 66.5 µM (inactive) | > 100 µM (inactive) | 70.6 µM (inactive) | 36.7 µM (inactive)
12 | CCCCC(/C=C\COC1CCCCO1)=C/C(=O)OCC (stereo unspecified) | 33.8 µM (inactive) | > 100 µM (inactive) | > 100 µM (inactive) | > 100 µM (inactive) | 38.4 µM (inactive) | 83.9 µM (inactive) | 41.4 µM (inactive) | 46.9 µM (inactive) | 63.1 µM (inactive) | > 100 µM (inactive) | > 100 µM (inactive) | 61.2 µM (inactive) | > 100 µM (inactive) | 44.4 µM (inactive) | > 100 µM (inactive) | 98.2 µM (inactive) | 48.8 µM (inactive) | 55.3 µM (inactive) | > 100 µM (inactive) | –
13 | CC(C)(C)OC(=O)n1cc(C2CNC(=O)C23CCC(=O)N3Cc2ccccc2)c2ccccc21 (stereo unspecified) | 25.9 µM (inactive) | 15.8 µM (inactive) | 20.4 µM (inactive) | – | 19.1 µM (inactive) | 29.9 µM (inactive) | 19.8 µM (inactive) | 27.9 µM (inactive) | 28.2 µM (inactive) | 21.9 µM (inactive) | 23.2 µM (inactive) | 18.7 µM (inactive) | 31.6 µM (inactive) | 17.7 µM (inactive) | – | 33.3 µM (inactive) | 18.1 µM (inactive) | 26 µM (inactive) | 27 µM (inactive) | 10.9 µM (inactive)
14 | NC(=O)C1=NNc2ccccc2C(=O)N1c1ccccc1 | > 100 µM (inactive) | > 100 µM (inactive) | > 100 µM (inactive) | – | > 100 µM (inactive) | > 100 µM (inactive) | > 100 µM (inactive) | > 100 µM (inactive) | > 100 µM (inactive) | > 100 µM (inactive) | – | > 100 µM (inactive) | > 100 µM (inactive) | > 100 µM (inactive) | > 100 µM (inactive) | > 100 µM (inactive) | 14.5 µM (inactive) | > 100 µM (inactive) | > 100 µM (inactive) | > 10 µM (inactive)
15 | CC(=O)Nc1c(S(=O)(=O)c2ccccc2)c(C)c(C)n1Cc1ccccc1 | > 100 µM (inactive) | > 100 µM (inactive) | > 100 µM (inactive) | > 100 µM (inactive) | > 100 µM (inactive) | > 100 µM (inactive) | – | – | > 100 µM (inactive) | > 100 µM (inactive) | > 100 µM (inactive) | > 100 µM (inactive) | > 100 µM (inactive) | > 100 µM (inactive) | > 100 µM (inactive) | > 100 µM (inactive) | > 100 µM (inactive) | > 10 µM (inactive) | > 100 µM (inactive) | > 100 µM (inactive)
